Source: ChEMBL document CHEMBL5291721, “A preclinical secondary pharmacology resource illuminates target-adverse drug reaction associations of marketed drugs” (Nat Commun, 2023)

Key:
[1] = molecular target: T1, Amine oxidase [flavin-containing] A (Homo sapiens, UniProt P21397); format: functional
T1 sequence (P21397 whole entry): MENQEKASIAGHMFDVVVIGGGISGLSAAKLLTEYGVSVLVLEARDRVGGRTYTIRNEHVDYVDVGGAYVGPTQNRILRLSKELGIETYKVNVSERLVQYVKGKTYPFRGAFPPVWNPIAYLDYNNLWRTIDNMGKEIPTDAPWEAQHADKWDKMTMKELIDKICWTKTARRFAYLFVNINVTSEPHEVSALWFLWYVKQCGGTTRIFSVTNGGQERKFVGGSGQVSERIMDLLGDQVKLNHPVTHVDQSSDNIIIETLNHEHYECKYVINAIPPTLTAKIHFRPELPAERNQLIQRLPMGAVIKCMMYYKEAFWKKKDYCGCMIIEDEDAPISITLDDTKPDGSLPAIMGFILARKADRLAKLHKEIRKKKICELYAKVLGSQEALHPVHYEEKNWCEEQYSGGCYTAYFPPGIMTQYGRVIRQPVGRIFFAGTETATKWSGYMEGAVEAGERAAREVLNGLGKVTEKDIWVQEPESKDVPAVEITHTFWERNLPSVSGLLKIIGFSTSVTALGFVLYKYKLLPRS

[2] = molecular target: T2, Alpha-2C adrenergic receptor (Homo sapiens, UniProt P18825); format: functional
T2 sequence (P18825 whole entry): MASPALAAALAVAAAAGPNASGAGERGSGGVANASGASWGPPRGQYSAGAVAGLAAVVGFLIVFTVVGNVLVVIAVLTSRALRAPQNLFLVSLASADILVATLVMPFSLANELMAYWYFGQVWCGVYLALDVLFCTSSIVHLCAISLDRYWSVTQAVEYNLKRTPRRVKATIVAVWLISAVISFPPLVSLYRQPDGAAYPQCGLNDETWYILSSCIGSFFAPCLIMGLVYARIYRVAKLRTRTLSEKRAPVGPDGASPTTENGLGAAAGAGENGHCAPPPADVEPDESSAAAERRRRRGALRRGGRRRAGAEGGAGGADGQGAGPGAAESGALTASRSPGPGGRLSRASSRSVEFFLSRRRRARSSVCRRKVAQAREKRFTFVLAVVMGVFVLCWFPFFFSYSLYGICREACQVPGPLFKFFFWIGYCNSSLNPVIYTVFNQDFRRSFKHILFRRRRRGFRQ

[3] = molecular target: T3, 5-hydroxytryptamine receptor 1A (Homo sapiens, UniProt P08908); format: functional, cell-based
T3 sequence (P08908 whole entry): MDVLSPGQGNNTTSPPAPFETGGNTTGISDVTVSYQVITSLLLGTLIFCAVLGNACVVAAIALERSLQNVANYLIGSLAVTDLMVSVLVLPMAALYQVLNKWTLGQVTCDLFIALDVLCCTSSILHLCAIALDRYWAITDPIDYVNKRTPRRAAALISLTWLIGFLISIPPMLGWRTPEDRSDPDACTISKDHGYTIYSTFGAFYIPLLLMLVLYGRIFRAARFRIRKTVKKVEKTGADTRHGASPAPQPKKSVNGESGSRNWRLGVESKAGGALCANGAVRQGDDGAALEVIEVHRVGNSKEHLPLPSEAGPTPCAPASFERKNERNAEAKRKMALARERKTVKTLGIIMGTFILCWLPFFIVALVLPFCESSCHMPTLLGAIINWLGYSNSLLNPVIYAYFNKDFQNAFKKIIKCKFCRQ

[4] = molecular target: T4, Equilibrative nucleoside transporter 1 (Homo sapiens, UniProt Q99808)
T4 sequence (Q99808 whole entry): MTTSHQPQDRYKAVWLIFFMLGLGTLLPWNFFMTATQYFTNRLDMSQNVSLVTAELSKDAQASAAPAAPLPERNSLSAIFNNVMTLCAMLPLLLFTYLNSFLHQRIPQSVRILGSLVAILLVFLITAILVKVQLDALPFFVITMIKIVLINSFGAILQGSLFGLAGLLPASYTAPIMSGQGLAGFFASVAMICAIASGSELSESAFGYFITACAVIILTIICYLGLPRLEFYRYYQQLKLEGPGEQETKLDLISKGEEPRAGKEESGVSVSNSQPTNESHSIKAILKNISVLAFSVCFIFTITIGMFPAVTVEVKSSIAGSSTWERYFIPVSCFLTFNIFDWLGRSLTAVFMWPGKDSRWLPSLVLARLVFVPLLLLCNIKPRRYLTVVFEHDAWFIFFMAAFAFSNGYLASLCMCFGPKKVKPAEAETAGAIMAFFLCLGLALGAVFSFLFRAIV

[5] = molecular target: Neuronal acetylcholine receptor subunit alpha-4 (Homo sapiens, UniProt P43681)
Chain of Neuronal acetylcholine receptor subunit alpha-4 (P43681 whole entry): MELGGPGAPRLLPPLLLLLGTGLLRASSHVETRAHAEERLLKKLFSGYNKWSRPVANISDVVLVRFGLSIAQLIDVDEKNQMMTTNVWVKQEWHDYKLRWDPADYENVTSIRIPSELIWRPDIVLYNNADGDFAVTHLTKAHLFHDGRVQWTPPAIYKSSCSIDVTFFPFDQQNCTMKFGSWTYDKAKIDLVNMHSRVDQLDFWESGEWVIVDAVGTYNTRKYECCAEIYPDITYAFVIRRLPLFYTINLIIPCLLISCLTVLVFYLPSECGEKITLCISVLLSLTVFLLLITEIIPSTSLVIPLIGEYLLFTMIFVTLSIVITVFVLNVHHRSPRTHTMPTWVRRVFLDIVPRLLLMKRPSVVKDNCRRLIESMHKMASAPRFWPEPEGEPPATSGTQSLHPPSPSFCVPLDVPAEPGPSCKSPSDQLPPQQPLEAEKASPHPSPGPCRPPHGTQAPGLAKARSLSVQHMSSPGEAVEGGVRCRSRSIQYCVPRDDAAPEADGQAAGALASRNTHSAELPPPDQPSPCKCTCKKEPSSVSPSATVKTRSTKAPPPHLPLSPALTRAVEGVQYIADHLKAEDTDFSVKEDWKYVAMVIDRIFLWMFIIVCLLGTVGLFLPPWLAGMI

[6] = molecular target: Sodium-dependent noradrenaline transporter (Homo sapiens, UniProt P23975)
Chain of Sodium-dependent noradrenaline transporter (P23975 whole entry): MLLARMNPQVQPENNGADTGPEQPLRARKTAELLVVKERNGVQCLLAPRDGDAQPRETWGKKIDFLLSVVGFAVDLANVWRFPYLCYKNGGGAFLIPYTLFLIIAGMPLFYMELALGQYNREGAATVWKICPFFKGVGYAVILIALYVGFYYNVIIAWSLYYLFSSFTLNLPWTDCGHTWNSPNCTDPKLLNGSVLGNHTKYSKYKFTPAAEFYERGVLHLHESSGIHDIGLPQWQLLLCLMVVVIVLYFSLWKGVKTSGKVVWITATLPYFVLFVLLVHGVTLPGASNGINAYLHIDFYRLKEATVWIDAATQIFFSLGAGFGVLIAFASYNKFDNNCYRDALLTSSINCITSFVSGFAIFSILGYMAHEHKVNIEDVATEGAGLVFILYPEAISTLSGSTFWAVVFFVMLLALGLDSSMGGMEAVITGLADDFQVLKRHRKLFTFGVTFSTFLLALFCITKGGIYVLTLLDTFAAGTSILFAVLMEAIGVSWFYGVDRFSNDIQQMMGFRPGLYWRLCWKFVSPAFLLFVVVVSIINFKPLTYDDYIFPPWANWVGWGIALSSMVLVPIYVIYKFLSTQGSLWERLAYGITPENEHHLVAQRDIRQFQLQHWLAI

D(3) dopamine receptor = D(3) dopamine receptor (Homo sapiens, UniProt P35462)
Chain of D(3) dopamine receptor (P35462 whole entry): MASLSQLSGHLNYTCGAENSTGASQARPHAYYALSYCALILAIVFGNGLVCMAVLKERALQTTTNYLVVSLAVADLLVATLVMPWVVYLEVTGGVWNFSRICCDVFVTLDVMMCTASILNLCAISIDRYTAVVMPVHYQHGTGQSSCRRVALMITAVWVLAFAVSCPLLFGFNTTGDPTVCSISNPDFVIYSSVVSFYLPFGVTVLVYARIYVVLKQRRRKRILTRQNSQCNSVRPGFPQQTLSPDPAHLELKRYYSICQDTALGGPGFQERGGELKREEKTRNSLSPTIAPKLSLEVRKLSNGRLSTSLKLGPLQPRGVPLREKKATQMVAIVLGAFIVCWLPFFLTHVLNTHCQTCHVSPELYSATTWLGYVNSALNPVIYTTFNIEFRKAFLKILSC

[7] = molecular target: T5, Type-1 angiotensin II receptor (Homo sapiens, UniProt P30556)
T5 sequence (P30556 whole entry): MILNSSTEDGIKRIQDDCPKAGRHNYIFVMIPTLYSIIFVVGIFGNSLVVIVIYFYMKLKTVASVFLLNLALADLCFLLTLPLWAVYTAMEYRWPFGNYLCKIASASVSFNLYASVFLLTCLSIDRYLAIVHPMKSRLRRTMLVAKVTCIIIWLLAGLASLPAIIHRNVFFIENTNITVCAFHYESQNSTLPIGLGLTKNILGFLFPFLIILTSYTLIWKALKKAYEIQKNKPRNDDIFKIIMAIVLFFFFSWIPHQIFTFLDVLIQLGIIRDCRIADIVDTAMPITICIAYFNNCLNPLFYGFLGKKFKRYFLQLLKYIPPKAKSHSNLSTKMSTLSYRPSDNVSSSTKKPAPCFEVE

[8] = molecular target: Gamma-aminobutyric acid receptor subunit alpha-1 (Rattus norvegicus, UniProt P62813); format: functional
Chain of Gamma-aminobutyric acid receptor subunit alpha-1 (P62813 whole entry): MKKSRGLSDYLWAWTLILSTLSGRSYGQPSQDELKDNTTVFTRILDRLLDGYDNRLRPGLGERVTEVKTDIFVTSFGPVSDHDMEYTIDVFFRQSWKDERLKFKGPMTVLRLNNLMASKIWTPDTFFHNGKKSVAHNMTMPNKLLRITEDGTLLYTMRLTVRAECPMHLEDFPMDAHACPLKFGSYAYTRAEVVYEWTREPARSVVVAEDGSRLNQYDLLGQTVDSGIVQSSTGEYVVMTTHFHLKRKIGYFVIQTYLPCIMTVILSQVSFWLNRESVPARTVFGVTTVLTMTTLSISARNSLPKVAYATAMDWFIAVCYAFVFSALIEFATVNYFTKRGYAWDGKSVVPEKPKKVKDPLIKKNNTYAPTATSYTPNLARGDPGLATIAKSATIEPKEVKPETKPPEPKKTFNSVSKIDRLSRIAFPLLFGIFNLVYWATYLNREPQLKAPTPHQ

Adenosine receptor A2a = Adenosine receptor A2a (Homo sapiens, UniProt P29274)
Chain of Adenosine receptor A2a (P29274 whole entry): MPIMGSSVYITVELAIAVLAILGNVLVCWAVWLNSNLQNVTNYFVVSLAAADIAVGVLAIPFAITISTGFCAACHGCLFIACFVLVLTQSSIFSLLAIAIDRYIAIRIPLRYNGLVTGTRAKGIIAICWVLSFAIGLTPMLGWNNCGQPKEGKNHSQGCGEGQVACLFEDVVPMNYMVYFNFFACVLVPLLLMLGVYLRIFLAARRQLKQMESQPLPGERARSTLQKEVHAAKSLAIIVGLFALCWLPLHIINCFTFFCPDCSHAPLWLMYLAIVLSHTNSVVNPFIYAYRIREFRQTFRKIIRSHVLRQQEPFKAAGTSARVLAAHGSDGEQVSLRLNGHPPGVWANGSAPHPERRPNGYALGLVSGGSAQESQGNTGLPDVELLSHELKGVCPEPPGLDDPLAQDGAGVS
Also: assay procedure not described here.

SMILES	AC50 [1]	AC50 [2]	AC50 [3]	AC50 [4]	AC50 [5]	AC50 [6]	AC50 (D(3) dopamine receptor)	AC50 [7]	AC50 [8]	AC50 (Adenosine receptor A2a)
CS(=O)(=O)Nc1ccc([N+](=O)[O-])cc1Oc1ccccc1 [NIMESULIDE]	> 30 µM	> 30 µM	> 30 µM	15 µM	21 µM	19 µM	> 30 µM	20 µM	> 30 µM	20 µM
CO[C@@H]1[C@@H](OC(N)=O)[C@@H](O)[C@H](Oc2ccc3c(O)c(NC(=O)c4ccc(O)c(CC=C(C)C)c4)c(=O)oc3c2C)OC1(C)C [NOVOBIOCIN]	> 30 µM	> 30 µM	> 30 µM	> 30 µM	> 30 µM	> 30 µM	> 30 µM	> 30 µM	> 30 µM	> 30 µM
CCC1(c2ccccc2)C(=O)NCNC1=O [PRIMIDONE]	> 10 µM	> 10 µM	> 10 µM	> 10 µM	> 10 µM	> 10 µM	> 30 µM	> 30 µM	> 10 µM	> 10 µM
CC(=O)SCC(Cc1ccccc1)C(=O)NCC(=O)OCc1ccccc1 (stereo not given) [RACECADOTRIL]	> 30 µM	> 30 µM	> 30 µM	> 30 µM	> 30 µM	> 10 µM	> 30 µM	> 30 µM	> 30 µM	> 30 µM
CCOc1ccccc1OCCN[C@H](C)Cc1ccc(OC)c(S(N)(=O)=O)c1 [TAMSULOSIN]	> 10 µM	0.3 µM	> 10 µM	> 30 µM	> 10 µM	> 30 µM	0.0032 µM	> 30 µM	> 10 µM	> 30 µM
C[C@H](Cn1cnc2c(N)ncnc21)OCP(=O)(O)O [TENOFOVIR ANHYDROUS]	> 30 µM	> 30 µM	> 30 µM	> 30 µM	> 30 µM	> 30 µM	> 30 µM	> 30 µM	> 30 µM	> 30 µM
COc1cc2c(cc1OC)C1CC(=O)C(CC(C)C)CN1CC2 (stereo not given) [TETRABENAZINE]	> 30 µM	> 30 µM	18 µM	> 30 µM	> 30 µM	> 30 µM	> 30 µM	> 30 µM	> 30 µM	> 30 µM
CC(C)(CO)c1cc2cc(NC(=O)C3(c4ccc5c(c4)OC(F)(F)O5)CC3)c(F)cc2n1C[C@@H](O)CO [TEZACAFTOR]	> 30 µM	> 30 µM	> 30 µM	> 30 µM	> 30 µM	> 30 µM	> 30 µM	> 30 µM	> 30 µM	> 30 µM
CN(C)CCN(Cc1ccccc1)c1ccccn1 [TRIPELENNAMINE]	> 10 µM	9.4 µM	> 10 µM	> 30 µM	> 10 µM	13.4 µM	> 10 µM	> 10 µM	> 10 µM	> 10 µM
Cc1c(C)c2c(c(C)c1O)CCC(C)(COc1ccc(CC3SC(=O)NC3=O)cc1)O2 (stereo not given) [TROGLITAZONE]	> 30 µM	24 µM	> 30 µM	> 30 µM	> 30 µM	15 µM	> 30 µM	15.5 µM	> 30 µM	> 30 µM
Nc1c2c(nc3ccccc13)CCCC2O (stereo not given) [VELNACRINE]	> 30 µM	> 30 µM	> 30 µM	> 30 µM	> 30 µM	> 30 µM	> 30 µM	> 30 µM	> 30 µM	> 30 µM
